Key:
Format in all cases: in vivo
[1] = tested on: Diaitaria ciliaris (Di); experiment: Test Example 3: herbicidal effects by upland field foliage treatment; set-up: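 grade of growth control; 5 = at least 90%; 4 = 70 to 90%; 3 = 50 to 70%; 2 = 30 to 50%; 1 = 10 to 30%; 0 = under 10%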
Protocol: (§1) (Test on Herbicidal Effects by Upland Field Foliage Treatment)
(§2) In a plastic pot (surface area: 120 cm^2) filled with sand, barnyardgrass (Ec), Diaitaria ciliaris (Di), pale smartweed (Po), slender amaranth (Am), common lambsquarters (Ch) and rice flatsedge (Ci) were sown and covered with soil and were cultured in a green house for 2 weeks. […] The plants were then cultured in the green house, and the evaluation of the herbicidal effects was conducted on the 14th day after the treatment in accordance with the standards as identified in Table 47. Symbol—represents “not tested”.

[2] = tested on: common lambsquarters (Ch); experiment: as above; set-up: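 grade of growth control; 5 = at least 90%; 4 = 70 to 90%; 3 = 50 to 70%; 2 = 30 to 50%; 1 = 10 to 30%; 0 = under 10%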
Protocol: as §1, §2

[3] = tested on: barnyardgrass (Ec); experiment: as above; set-up: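 grade of growth control; 5 = at least 90%; 4 = 70 to 90%; 3 = 50 to 70%; 2 = 30 to 50%; 1 = 10 to 30%; 0 = under 10%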
Protocol: as §1, §2

[4] = tested on: pale smartweed (Po); experiment: as above; set-up: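 grade of growth control; 5 = at least 90%; 4 = 70 to 90%; 3 = 50 to 70%; 2 = 30 to 50%; 1 = 10 to 30%; 0 = under 10%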
Protocol: as §1, §2

[5] = tested on: slender amaranth (Am); experiment: as above; set-up: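 grade of growth control; 5 = at least 90%; 4 = 70 to 90%; 3 = 50 to 70%; 2 = 30 to 50%; 1 = 10 to 30%; 0 = under 10%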
Protocol: as §1, §2

[6] = tested on: rice flatsedge (Ci); experiment: as above; set-up: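 grade of growth control; 5 = at least 90%; 4 = 70 to 90%; 3 = 50 to 70%; 2 = 30 to 50%; 1 = 10 to 30%; 0 = under 10%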
Protocol: as §1, §2

[7] = tested on: bulrush (Sc); experiment: Test Example 1: herbicidal effects by paddy field soil treatment; conditions: 100 g of the active ingredient per 10 ares, 21st day after the application, index 0-5 of Table 47;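 further: grade of growth control; 5 = at least 90%; 4 = 70 to 90%; 3 = 50 to 70%; 2 = 30 to 50%; 1 = 10 to 30%; 0 = under 10%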
Protocol: (§3) (Test on Herbicidal Effects by Paddy Field Soil Treatment)
(§4) In a plastic pot (surface area: 100 cm^2) filled with paddy field soil, barnyardgrass (Ec), monochoria (Mo) and bulrush (Sc) were sown after puddling and leveling, and flooded to a water depth of 3 cm. […] The dose was 100 g of the active ingredient per 10 ares. The plants were then cultured in a green house, and the evaluation of the herbicidal effects was conducted on the 21st day after the application in accordance with the standards as identified in Table 47.

[8] = tested on: monochoria (Mo); experiment: as above; conditions: 100 g of the active ingredient per 10 ares, 21st day after the application, index 0-5 of Table 47;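 further: grade of growth control; 5 = at least 90%; 4 = 70 to 90%; 3 = 50 to 70%; 2 = 30 to 50%; 1 = 10 to 30%; 0 = under 10%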
Protocol: as §3, §4

[9] = tested on: barnyardgrass (Ec); experiment: as above; conditions: 100 g of the active ingredient per 10 ares, 21st day after the application, index 0-5 of Table 47
Protocol: as §3, §4

[10] = tested on: common lambsquarters (Ch); experiment: Test Example 2: herbicidal effects by upland field soil treatment; conditions: 100 g of the active ingredient per 10 ares;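 further: grade of growth control; 5 = at least 90%; 4 = 70 to 90%; 3 = 50 to 70%; 2 = 30 to 50%; 1 = 10 to 30%; 0 = under 10%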
Description: (§5) (Test on Herbicidal Effects by Upland Field Soil Treatment)

[11] = tested on: barnyardgrass (Ec); experiment: as above; conditions: 100 g of the active ingredient per 10 ares
Description: as §5

[12] = tested on: Digitaria ciliaris (Di); experiment: as above; conditions: 100 g of the active ingredient per 10 ares;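 further: grade of growth control; 5 = at least 90%; 4 = 70 to 90%; 3 = 50 to 70%; 2 = 30 to 50%; 1 = 10 to 30%; 0 = under 10%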
Description: as §5

[13] = tested on: pale smartweed (Po); experiment: as above; conditions: 100 g of the active ingredient per 10 ares
Description: as §5

[14] = tested on: slender amaranth (Am); experiment: as above; conditions: 100 g of the active ingredient per 10 ares
Description: as §5

[15] = tested on: rice flatsedge (Ci); experiment: as above; conditions: 100 g of the active ingredient per 10 ares
Description: as §5

[16] = 100 g of the active ingredient per 10 ares, evaluated on the 14th day after treatment
[17] = 21st day after the application, index 0-5 of Table 47
[18] = evaluated on the 21st day after application
[19] = 100 g active ingredient per 10 ares, evaluated 14th day after treatment

SMILES	Herbicidal effects Di [1, 16]	Herbicidal effects Ch [2, 16]	Herbicidal effects Ec [3, 16]	Herbicidal effects Po [4, 16]	Herbicidal effects Am [5, 16]	Herbicidal effects Ci [6, 16]	Herbicidal effects Sc [7]	Herbicidal effects Mo [8]	Herbicidal effects Ec [9]	other results
CCOC(=O)C(C)Sc1cc(-c2ccc(C(F)(F)F)n(C)c2=O)c(Cl)cc1Cl (racemic) [1-124]	5	5	5	5	5	5	5	5	5	
CCOC(=O)COc1cc(-c2ccc(C(F)(F)F)n(C)c2=O)c(Cl)cc1Cl [1-33]	4	5	5	4	5	5	5	5	5	
CCOC(=O)CSc1cc(-c2ccc(C(F)(F)F)n(C)c2=O)c(F)cc1Cl [1-45]	5	5	5	5	5	5	5	5	5	
COC(=O)CSc1cc(-c2ccc(C(F)(F)F)n(C)c2=O)c(F)cc1Cl [1-46]	5	5	5	5	5	5	5	5	5	
COCCOC(=O)CSc1cc(-c2ccc(C(F)(F)F)n(C)c2=O)c(F)cc1Cl [1-49]	5	5	5	5	5	5	5	5	5	
COC(=O)CSc1cc(-c2ccc(C(F)(F)F)n(C)c2=O)c(Cl)cc1Cl [1-54]	5	5	5	4	5	5	5	5	5	
CC(C)=NOC(=O)c1cc(-c2ccc(C(F)(F)F)n(C)c2=O)c(F)cc1Cl [1-68]	5	5	5	5	5	5	5	5	5	
COC(=O)C(Cl)Cc1cc(-c2ccc(C(F)(F)F)n(C)c2=O)c(F)cc1Cl (centres unmarked) [1-70]	5	5	5	5	5	5	5	5	5	
Cn1c(C(F)(F)F)ccc(-c2cc(Oc3nc(Cl)cs3)c(Cl)cc2F)c1=O [1-103]							5	5	5	Herbicidal effects Ch [10, 17]: 5; Herbicidal effects Ec [11, 17]: 4; Herbicidal effects Di [12, 17]: 5; Herbicidal effects Po [13, 17]: 5; Herbicidal effects Am [14, 17]: 5; Herbicidal effects Ci [15, 17]: 5
COc1cc(-c2ccc(C(F)(F)F)n(C)c2=O)ccc1Cl [1-108]	5	5	5	5	5	5	5	5	5	Herbicidal effects Ch [10, 17]: 5; Herbicidal effects Ec [11, 17]: 5; Herbicidal effects Po [13, 17]: 5; Herbicidal effects Am [14, 17]: 5; Herbicidal effects Ci [15, 17]: 5
C#CCSc1cc(-c2ccc(C(F)(F)F)n(C)c2=O)ccc1Cl [1-112]							5	5	5	Herbicidal effects Ch [10, 17]: 5; Herbicidal effects Ec [11, 17]: 5; Herbicidal effects Di [12, 17]: 5; Herbicidal effects Po [13, 17]: 5; Herbicidal effects Am [14, 17]: 5; Herbicidal effects Ci [15, 17]: 5
CCCCCOC(=O)CSc1cc(-c2ccc(C(F)(F)F)n(C)c2=O)c(Cl)cc1Cl [1-123]	5	5	4	5	5	5	5	5	5	
Cn1c(C(F)(F)F)ccc(-c2cc(SCC(=O)O)c(Cl)cc2Cl)c1=O [1-127]	5	5	4	5	5	5	5	5	5	
Cn1c(C(F)(F)F)ccc(-c2cc(Sc3ncccn3)c(Cl)cc2Cl)c1=O [1-131]							5	5	5	Herbicidal effects Ch [10, 17]: 5; Herbicidal effects Ec [11, 17]: 5; Herbicidal effects Di [12, 17]: 5; Herbicidal effects Po [13, 17]: 5; Herbicidal effects Am [14, 17]: 5; Herbicidal effects Ci [15, 17]: 5
CCOC(=O)COC(=O)c1cc(-c2ccc(C(F)(F)F)n(C)c2=O)c(F)cc1Cl [1-142]	5	5	5	5	5	5	5	5	5	
Cn1c(C(F)(F)F)ccc(-c2cc(C(N)=O)c(Cl)cc2F)c1=O [1-145]	5	5	5	5	5	5	5	5	5	
Cn1c(C(F)(F)F)ccc(-c2cc(OC3CCCO3)c(Cl)cc2F)c1=O (centres unmarked) [Compound 1-183]	5	5	4	5	5	5	5	5	5	
Cn1c(C(F)(F)F)ccc(-c2ccc(Cl)c(Cl)c2)c1=O [Compound 1-185]										Herbicidal effects Ch [10, 18]: 5; Herbicidal effects Ec [11, 18]: 5; Herbicidal effects Di [12, 18]: 5; Herbicidal effects Po [13, 18]: 4; Herbicidal effects Am [14, 18]: 5; Herbicidal effects Ci [15, 18]: 5
Cn1c(C(F)(F)F)ccc(-c2cc(Cl)c(Cl)cc2Cl)c1=O [Compound 1-186]							4	5	5	Herbicidal effects Ch [10, 18]: 5; Herbicidal effects Ec [11, 18]: 5; Herbicidal effects Di [12, 18]: 5; Herbicidal effects Po [13, 18]: 5; Herbicidal effects Am [14, 18]: 5; Herbicidal effects Ci [15, 18]: 5
C=CC(=O)c1cc(-c2ccc(C(F)(F)F)n(C)c2=O)c(F)cc1Cl [Compound 1-198]							5	5	5	Herbicidal effects Di [1, 19]: 5; Herbicidal effects Ch [2, 19]: 5; Herbicidal effects Ec [3, 19]: 5; Herbicidal effects Po [4, 19]: 5; Herbicidal effects Am [5, 19]: 5; Herbicidal effects Ci [6, 19]: 5
CNC(=O)COc1cc(-c2ccc(C(F)(F)F)n(C)c2=O)c(F)cc1Cl [Compound 1-209]							5	5	5	Herbicidal effects Ch [10, 18]: 5; Herbicidal effects Ec [11, 18]: 4; Herbicidal effects Di [12, 18]: 4; Herbicidal effects Po [13, 18]: 5; Herbicidal effects Am [14, 18]: 5; Herbicidal effects Ci [15, 18]: 5
CNS(=O)(=O)c1cc(-c2ccc(C(F)(F)F)n(C)c2=O)ccc1Cl [Compound 1-257]							5	5	5	Herbicidal effects Ch [10, 18]: 5; Herbicidal effects Ec [11, 18]: 5; Herbicidal effects Di [12, 18]: 5; Herbicidal effects Po [13, 18]: 5; Herbicidal effects Am [14, 18]: 5; Herbicidal effects Ci [15, 18]: 5
C#CCN1C(=O)CSc2cc(F)c(-c3ccc(C(F)(F)F)n(C)c3=O)cc21 [Compound 2-21]							5	5	5	Herbicidal effects Ch [10, 18]: 5; Herbicidal effects Ec [11, 18]: 5; Herbicidal effects Di [12, 18]: 5; Herbicidal effects Po [13, 18]: 5; Herbicidal effects Am [14, 18]: 5; Herbicidal effects Ci [15, 18]: 5
Cn1c(C(F)(F)F)ccc(-c2cc3c(cc2Cl)OCC(=O)N3)c1=O [Compound 2-27]							5	5	5	Herbicidal effects Ch [10, 18]: 5; Herbicidal effects Ec [11, 18]: 5; Herbicidal effects Di [12, 18]: 5; Herbicidal effects Po [13, 18]: 5; Herbicidal effects Am [14, 18]: 5; Herbicidal effects Ci [15, 18]: 5
Cn1c(C(F)(F)F)ccc(-c2cc(O)c(Cl)cc2F)c1=O [Compound No. 1-13]	5	5	5	5	5	5	5	5	5	
CCOC(=O)COc1cc(-c2ccc(C(F)(F)F)n(C)c2=O)c(F)cc1Cl [Compound No. 1-19]	5	5	5	5	5	5	5	5	5	
Cc1ccc(-c2ccc(Cl)cc2)c(=O)[nH]1 [comparative agent, reference compound]										Herbicidal effects Ch [10, 18]: 0; Herbicidal effects Ec [11, 18]: 0; Herbicidal effects Di [12, 18]: 0; Herbicidal effects Po [13, 18]: 0; Herbicidal effects Am [14, 18]: 0; Herbicidal effects Ci [15, 18]: 0

Reference: patent US6472348B1, “Pyridone derivatives and herbicides” (Kumiai Chemical Industry Co., Ltd., priority 1996, dated 2002)
